The record followed here is patent US6599932B1, “Alpha, beta-unsaturated sulfones for treating proliferative disorders” (Temple University-Of The Commonwealth System of Higher …, priority 2000, dated 2003).

Structures are written as SMILES.

Holding throughout (format): cell-based
Design in all cases: dose or concentration left out as unconfirmed

Test [1] has as its system prostate tumor cell line DU-145. In words: Viability assay, Trypan blue exclusion, prostate tumor cell line DU-145. The settings on record: for cytotoxicity: Homo sapiens, DU-145, 96 hours, read-out: percent cell death (% Death), DU145. On the procedure:
(§1) The effect of the sulfones on normal fibroblasts and on tumor cells of prostate, colon, lung and breast origin was examined utilizing the following cell lines: prostate tumor cell line DU-145; colorectal carcinoma cell line DLD-1; non-small cell lung carcinoma cell line H157; and breast tumor cell line BT-20. BT-20 is an estrogen-unresponsive cell line. NIH/3T3 and HFL are normal murine and human fibroblasts, respectively. BT-20, DLD-1 and H157 were grown in Dulbecco's modified Eagle's medium (DMEM) containing 10% fetal bovine serum supplemented with penicillin and streptomycin. DU145 was cultured in RPMI with 10% fetal bovine serum containing penicillin and streptomycin. NIH3T3 and HFL cells were grown in DMEM containing 10% calf serum supplemented with penicillin and streptomycin. All cell cultures were maintained at 37° C. in a humidified atmosphere of 5% CO2.
(§2) Cells were treated with test compound […] concentration and cell viability was determined after 96 hours by the Trypan blue exclusion method. Activity for each compound is reported as a range of cell induced death (% Death) with the lowest activity in the range of 5-10%.

The test system of test [2] is colorectal carcinoma cell line DLD-1. The experiment in a line: Viability assay, Trypan blue exclusion, colorectal carcinoma cell line DLD-1. The settings on record: for cytotoxicity: Homo sapiens, DLD-1, 96 hours, read-out: percent cell death (% Death), DLD-1. Here is the method:
as §1, §2

Test [3] deals with non-small cell lung carcinoma cell line H157. In words: Viability assay, Trypan blue exclusion, non-small cell lung carcinoma cell line H157. The settings on record: for cytotoxicity: Homo sapiens, NCI-H157, 96 hours, read-out: percent cell death (% Death), H157. On the procedure:
as §1, §2

Test [4] relates to breast tumor cell line BT-20. In words: Viability assay, Trypan blue exclusion, breast tumor cell line BT-20. The settings on record: for cytotoxicity: Homo sapiens, BT-20, 96 hours, read-out: percent cell death (% Death), BT20. On the procedure:
as §1, §2

For `O=S(=O)(/C=C/c1ccsc1)Cc1ccc(OC(F)(F)F)cc1` [Example 28, (E)-3-Thiopheneethenyl-4-trifloromethoxylbenzylsulfone], the “percent cell death (% Death), DU145” value in test [1] (96 hours) was “+ ((+)=5-10%)”. Besides, the “percent cell death (% Death), DLD-1” value in test [2] (96 hours) is reported as “+ ((+)=5-10%)”. For the same molecule, the “percent cell death (% Death), H157” value in test [3] (96 hours) is “+ ((+)=5-10%)”. The “percent cell death (% Death), BT20” value in test [4] (96 hours) was “+ ((+)=5-10%)”.

In the case of `O=[N+]([O-])c1ccc(CS(=O)(=O)/C=C/c2ccoc2)cc1` [Example 51, (E)-3-Furanethenyl-4-nitrobenzylsulfone], the cytotoxicity in test [1], in test [2], in test [3] and in test [4] was 5 to 10% each time.

Consider `O=S(=O)(/C=C/c1ccc2ccccc2c1)Cc1ccc(F)cc1` [Example 63, (E)-2-Naphthaleneethenyl-4-fluorobenzylsulfone], for which the cytotoxicity in test [1], in test [2], in test [3] and in test [4] was 5 to 10% each time.

With `O=S(=O)(/C=C/c1ccc(Br)s1)Cc1ccc(Cl)cc1` [Example 17, (E)-5-Bromo-2-thiopheneethenyl-4-chlorobenzylsulfone], the cytotoxicity in test [1], in test [2], in test [3] and in test [4] was 5 to 10% throughout.

Regarding `O=S(=O)(/C=C/c1ccc(Br)cc1)Cc1cccc2ccccc12` [Example 70, (E)-4-Bromostyryl-1-(naphthylmethyl)sulfone], the cytotoxicity in test [1], in test [2], in test [3] and in test [4] was 5 to 10% throughout.

With `O=S(=O)(/C=C/c1cccs1)Cc1ccc(Cl)cc1` [Example 11, (E)-2-Thiopheneethenyl4-chlorobenzylsulfone], the cytotoxicity in test [1], in test [2], in test [3] and in test [4] was 5 to 10% each time.
